Reference: article PMC12293736, “Discovery of N-(6-Methoxypyridin-3-yl)quinoline-2-amine Derivatives for Imaging Aggregated α-Synuclein in Parkinson’s Disease with Positron Emission Tomography” (Cells, 2025)
Like-named read-outs stand apart in the source and are kept apart here.

Target: recombinant α-synuclein fibrils (Homo sapiens, UniProt P37840)
Test: radioactive competitive binding assay with [^3H]BF2846 (Tables 1 and 2: or [^18F]7j with LBD-amplified fibrils)
Protocol: Three concentrations of the test compounds (10 nM, 100 nM, and 1 μM) were selected and individually mixed with [^3H]BF2846 (∼4 nM). Each mixture was then separately added to 50 nM of recombinant α-syn fibrils in a working buffer (50 mM Tris-HCl, 0.01% bovine serum albumin (BSA)). The mixture (150 μL) was gently mixed via agitation, covered, and then incubated at 37 °C for 1.5 h in a non-binding 96-well plate (Corning Inc., Corning, NY, USA; catalog no. 3605). The mixture was filtered through a Unifilter-96 harvesting system (PerkinElmer Inc., Waltham, MA, USA) and then washed three times with 250 μL of ice-cold buffer containing 10 mM Tris-HCl (pH 7.4), 15 mM NaCl, and 20% EtOH. Next, 50 μL of scintillation cocktail (MicroScint-20, PerkinElmer) was added to the collected filtrate and counted on a Microbeta system (PerkinElmer Inc., Waltham, MA, USA). The total binding was measured in the absence of the tested compounds, and non-specific binding was defined by the presence of 100 nM of unlabeled BF2846 in the working buffer.
For the full curve of α-syn competition binding, [^3H]BF2846 (∼4 nM) was incubated with fixed concentrations of 50 nM α-syn fibrils and ten concentrations of the tested compounds (0.05−1000 nM). All data points were collected in three individual experiments. The equilibrium inhibition constants, Ki values, were obtained from EC50 values using the equation Ki = EC50/(1 + [radioligand]/Kd) via non-linear regression from GraphPad Prism v.9.3.1 (GraphPad Software, San Diego, CA, USA) […]
In addition, competition assays were performed with LBD-amplified fibrils and [^18F]TZ61-44 with slight modifications. The method used to produce LBD-amplified fibrils is described by Dhavale et al., and the source of the tissue was the Banner Sun Health Research Institute Brain and Body Donation Program of Sun City, Arizona. Each test compound concentration (0.001–1 µM) was individually mixed with [^18F]TZ61-44 (2 nM), and the resulting mixture was then added to 25 nM of LBD-amplified fibrils in 30 mM of Tris-HCl buffer (pH 7.4) containing 0.1% BSA. The mix was incubated for 1 h with shaking. The samples were then transferred to Multiscreen FB filter plates (Catalog MSFBN6B50, MilliporeSigma) and washed three times with cold (4 °C) buffer. The glass fiber filters containing fibril-bound radioligands were removed and counted immediately in a PerkinElmer (1450-021) Trilux MicroBeta Liquid Scintillation counter using 150 µL of Optiphase Supermix cocktail (Perkin Elmer). All data points were obtained in triplicate. The data were analyzed using Graphpad Prism software (version 10) to the obtain EC50 and Ki values by fitting the data to a one-site competition model. The synthesis of the tested compounds is described in the Supporting Information. […]
6. Alpha-Synuclein Binding Affinity Studies a). Determination of α-synuclein binding activity using radioactive competitive assay [ 3H]BF2846 Three concentrations of test compounds (10nM, 100nM, and 1μM) were selected and individually mixed with [3H]BF2846 ( ∼4 nM). Each mixture was then separately added to 50 nM of recombinant α-syn fibrils in a working buffer (50 mM Tris-HCl, 0.01% bovine serum albumin (BSA)). The mixture (150 μL) was gently mixed by agitation, covered, and then incubated at 37°C for 1.5 h in a nonbinding 96 well plate (Corning, 3605). The mixture was filtered through a Unifilter – 96 harvesting system (PerkinElmer) and then washed three times with 250 μL of ice-cold buffer containing 10 mM Tris – HCl (pH7.4), 15mM NaCl, and 20% EtOH. 50μL of scintillation cocktail (MicroScint-20, PerkinElmer) was added to the collected filtrate and counted on a Microbeta system (PerkinElmer). Total binding was measured in the absence of tested compounds, and nonspecific binding was defined by the presence of 100 nM unlabeled BF2846 in the working buffer. The data analysis was carried out in the following equation and graphically presented with a heatmap. […]

[1] = Table 1, vs. [^3H]BF2846 or [^18F]7j as radioligand, NB = no binding affinity measurable, read-out: Ki
[2] = [^3H]BF2846 competitive assay, read-out: Ki value for α-synuclein fibrils
[3] = Table 2, [^3H]BF2846 or [^18F]7j indirect competitive binding assay, read-out: Ki
[4] = Table 3, [^3H]BF2846 indirect competitive binding assay, read-out: Ki

Ki [3]	Ki [4]	SMILES	also measured
65 nM		COc1ccc(Nc2cc(F)c3ccccc3n2)cn1 [Compound 5b]	
27 nM		COc1ccc(Nc2ccc3cc(F)ccc3n2)cn1 [Compound 5d]	
53 nM		COc1ccc(Nc2ccc3ccc(F)cc3n2)cn1 [Compound 5e]	
21 nM		COc1ccc(Nc2ccc3cc([N+](=O)[O-])ccc3n2)cn1 [Compound 7a]	
70 nM		COc1ccc(Nc2ccc3cc(O)ccc3n2)cn1 [Compound 7e, 2-((6-Methoxypyridin-3-yl)amino)quinolin-6-ol]	
4.6 nM		COc1ccc2nc(Nc3ccc(OC)nc3)ccc2c1 [Compound 7f]	
23 nM		COc1ccc(Nc2ccc3cc(OC(F)F)ccc3n2)cn1 [Compound 7g]	
~100 nM		COc1ccc(Nc2ccc3cc(OC(F)(F)F)ccc3n2)cn1 [Compound 7h]	Ki [2]: 100 nM
	42 nM	COc1ccc(Nc2ccc3cc(OCCOCCOCCOCCF)ccc3n2)cn1 [Compound 7m]	
	397 nM	COc1ccc2nc(Nc3ccc(F)nc3)ccc2c1 [Compound 7n]	
	81 nM	FCCOc1ccc2nc(Nc3ccc(C(F)(F)F)nc3)ccc2c1 [Compound 7p]	
	10 nM	COc1ccc2nc(Nc3ccc(OC(F)(F)F)nc3)ccc2c1 [Compound 7q]	
	26.1 nM	Cc1ccc(Nc2ccc3cc(OCCF)ccc3n2)cn1 [Compound 7s]	
	5 nM	COc1ccc(Nc2ccc3cc(OC/C=C/I)ccc3n2)cn1 [Compound 8i]	
	> 1000 nM	COc1ccc(Nc2ccc3nc(Nc4ccc(OC)nc4)ccc3c2)cn1 [Compound 8j]	

The remaining lines, values behind:

SMILES	Ki [3]	Ki [4]	also measured
COc1ccc(Nc2ccc3ccccc3n2)cn1 [Compound 3a]			Ki [1]: ~100 nM; Ki [2]: 100 nM
COc1ccc(Nc2cnc3ccccc3c2)cn1 [Compound 3c]			Ki [1]: 418 nM
COc1ccc(Nc2ccc3ncccc3c2)cn1 [Compound 3d]			Ki [1]: > 1000 nM
COc1ccc(Nc2ccc3cnccc3c2)cn1 [Compound 3e]			Ki [1]: 46 nM
COc1ccc(Nc2ccc3ccncc3c2)cn1 [Compound 3f]			Ki [1]: > 1000 nM
COc1ccc(Nc2ccc3cccnc3c2)cn1 [Compound 3g]			Ki [1]: > 1000 nM
COc1ccc(Nc2ccc3c(F)cccc3n2)cn1 [Compound 5c]	33 nM		
COc1ccc(Nc2ccc3cccc(F)c3n2)cn1 [Compound 5f]	41 nM		
COc1ccc(Nc2ccc3cc(N)ccc3n2)cn1 [Compound 7c]	82 nM		
COc1ccc(Nc2ccc3cc(OS(=O)(=O)F)ccc3n2)cn1 [Compound 7i]	320 nM		
COc1ccc(Nc2ccc3cc(OCCF)ccc3n2)cn1 [Compound 7j]	6.4 nM		
COc1ccc(Nc2ccc3cc(OCCOCCF)ccc3n2)cn1 [Compound 7k]		50 nM	
COc1ccc(Nc2ccc3cc(OCCOCCOCCF)ccc3n2)cn1 [Compound 7l]		49 nM	
COc1ccc2nc(Nc3ccc(C(F)(F)F)nc3)ccc2c1 [Compound 7o]		182 nM	
COc1ccc2nc(Nc3ccc(SC)nc3)ccc2c1 [Compound 7r]		197 nM	
FCCOc1ccc2nc(Nc3cccnc3)ccc2c1 [Compound 7t]		> 500 nM	
COc1ccc(Nc2ccc3cc(OCC(F)(F)F)ccc3n2)cn1 [Compound 7u]		44.6 nM	
COc1ccc(Nc2ccc3cc(OCC4COC4)ccc3n2)cn1 [Compound 8a]		> 500 nM	
COc1ccc(Nc2ccc3cc(OCC4CCCCC4)ccc3n2)cn1 [Compound 8b]		> 500 nM	
COc1ccc(Nc2ccc3cc(OCc4ccccc4)ccc3n2)cn1 [Compound 8c]		47.7 nM	
COc1ccc(Nc2ccc3cc(OCc4cccnc4)ccc3n2)cn1 [Compound 8e]		24 nM	
COc1ccc(COc2ccc3nc(Nc4ccc(OC)nc4)ccc3c2)cc1 [Compound 8f]		20 nM	
COc1cccc(COc2ccc3nc(Nc4ccc(OC)nc4)ccc3c2)c1 [Compound 8g]		36 nM	
COc1ccc(Nc2ccc3cc(OCc4ccc(F)cc4)ccc3n2)cn1 [Compound 8h]		66.3 nM	
